Measurements taken from patent publication US20250345383A1, “INTRANASAL ADMINISTRATION OF POLYSULFIDE” (The General Hospital Corporation, priority 2022, published 2025).

What was measured:
[1] = test system: sulfane sulfur in lumbar spinal cord; test: Relative sulfane sulfur levels in lumbar spinal cords after SCI (SSip-1); format: in vivo, mouse; details: 48 hours after SCI; intranasal GSSSG; sham set to 1.00±0.30, vehicle alone 0.56±0.13; mean ± SD
Experimental: Lumbar spinal cords were harvested 48 hours after surgery and snap-frozen in liquid nitrogen. Spinal cords were subsequently homogenized in Hanks' balanced salt solution (HBSS; Thermo Fisher Scientific, Waltham, MA, USA) containing SSip-1 (5 μM), incubated at room temperature in the dark for 20 minutes, and then subjected to centrifugation. SSip-1 was synthesized and provided by the Hanaoka laboratory^38. The fluorescence intensities of supernatants were measured using a microplate reader (SpectraMax M5; Molecular Devices, San Jose, CA, USA) at the wavelength of λex/λem=491 nm/525 nm. The fluorescence intensities were normalized to the weights of the spinal cord.

[2] = test system: primary cortical neurons; test: Cell viability after oxygen and glucose deprivation/reoxygenation (OGD/R), primary cortical neurons; format: cell-based, mouse
Experimental: Primary cortical neurons were isolated from the cerebral cortices of C57BL/6J mice of both sexes at embryonic day 15, as previously described 39. Primary cortical neurons were maintained at 37° C. in a humidified tissue culture chamber with 5% CO2 and cells were used on day 11 after harvest. […] After reoxygenation, cell viability and cell injury were assessed using crystal violet and lactate dehydrogenase (LDH) assays, as previously described^39.

[3] = LC-MS/MS of ^34S-labeled GSSSG and sulfane sulfur species in CNS and plasma after intranasal GS^34SSG; format: in vivo, mouse; details: after intranasal administration
Experimental: We used LC-MS/MS analysis to measure the amount of ^34S-labeled GSSSG ([^32S2, ^34S]GSSSG) in the CNS and plasma after intranasal administration of GS^34SSG, an isotope of endogenous GSSSG^9,35,36. The ratios of ^34S-labeled sulfane sulfur species ([^32S, ^34S]GSSH, [^32S, ^34S]cysteine hydropersulfide (CysSSH), and [^32S2, ^34S]cysteine trisulfide (CysSSSCys)) to endogenous sulfane sulfur species ([^32S2]GSSH, [^32S2]CysSSH, and […]) were also quantitatively evaluated. At 30 minutes after intranasal administration of 50 mg/kg of GS^34SSG, blood was obtained and four different central nervous tissues were harvested: olfactory bulb and forebrain; brainstem; cervical and thoracic spinal cord, and lumbar spinal cord. A total of 30 mg of each tissue was homogenized in 300 μl of ice-cold methanol solution containing 5 mM β-(4-hydroxyphenyl)ethyl iodoacetamide (HPE-IAM; Santa Cruz Biotechnology, Dallas, TX, USA). Twenty-five μl of plasma was mixed with 75 μl of ice-cold methanol solution containing 5 mM HPE-IAM. Samples were incubated for 20 minutes at 37° C. in the dark. After centrifugation (14,000×g for tissues, 1,870×g for plasma, 10 minutes, 4° C.), the supernatant was separated and diluted with 0.1% formic acid for LC-MS/MS analysis, and the pellet was sonicated to measure the protein concentration by BCA assay. The amount of [^32S2, ^34S]GSSSG was quantified in selective reaction monitoring (SRM) with precursor ion (647.14 m/z), product ion (389.1 m/z), and higher energy collisional dissociation (21 v). The ratios of [^32S, ^34S]GSSH to [^32S2]GSSH, [^32S, ^34S]CysSSH to [^32S2]CysSSH, and [^32S2, ^34S]CysSSSCys to [^32S3]CysSSSCys were calculated from their peak area measured by Dionex UltiMate 3000 RS UPLC-Orbitrap Exploris 480 mass spectrometer (Thermo Fisher Scientific, Waltham, MA, USA). In brief, samples were subjected to the UPLC system with a Hypersil Gold C-18 (100×2.1 mm, 3.0 μm, Thermo Fisher Scientific, Waltham, MA, USA) column and were then eluted by a linear methanol gradient of the mobile phase (0-90%, 15 minutes) in the presence of 0.1% formic acid at a flow rate of 0.2 ml/minute at 40° C. The raw data were analyzed by Compound Discoverer 3.3 software (Thermo Fisher Scientific, Waltham, MA, USA). The molecular weights of these sulfane sulfur species combined with HPE-IAM were determined based on previous reports^9,11,37.

[4] = test system: primary cortical neurons; test: Relative sulfane sulfur levels in primary cortical neurons (SSip-1 DA); format: cell-based, mouse; details: incubation at 10 μM for 20 minutes; relative to untreated neurons
Experimental: Primary cortical neurons were isolated from the cerebral cortices of C57BL/6J mice of both sexes at embryonic day 15, as previously described 39. Primary cortical neurons were maintained at 37° C. in a humidified tissue culture chamber with 5% CO2 and cells were used on day 11 after harvest.
Primary cortical neurons or SH-SY5Y cells, a human neuroblastoma cell line (American Type Culture Collection, Manassas, VA, USA), were incubated with SSip-1 DA […] at 37° C. for 20 minutes in the dark. Cells were washed with pre-warmed HBSS containing calcium and magnesium (Thermo Fisher Scientific, Waltham, MA, USA) and then cells were incubated with GSSSG, sodium trisulfide (Na2S3; Dojindo Molecular Technologies, Inc., Rockville, MD, USA), PTN-SSS, or vehicle alone for 20 minutes at 37° C. in the dark. Fluorescence intensities were measured using a microplate reader.

Compound: N[C@@H](CCC(=O)N[C@@H](CSSSC[C@H](NC(=O)CC[C@H](N)C(=O)O)C(=O)NCC(=O)O)C(=O)NCC(=O)O)C(=O)O [GSSSG, glutathione trisulfide]
- relative sulfane sulfur levels in lumbar spinal cord [1]: 1.37±0.50
- cell survival after OGD/R ([2]; GSSSG 100 μM): failed to improve cell survival
- release of LDH after OGD/R ([2]; GSSSG at 30 μM or 60 μM, vs vehicle-only treated cells): decreased release of LDH
- cell viability after OGD/R, crystal violet assay (GSSSG, GSH, GSSG comparison) ([2]; GSSSG at 30 μM, GSH at 60 μM, GSSG at 30 μM, vs vehicle-only treated cells): improved cell viability
- cell viability after OGD/R, crystal violet assay ([2]; GSSSG at 30 μM, vs vehicle-only treated cells): increased cell viability
- increase of levels of multiple sulfane sulfur species in the lumbar spinal cord [3]: 10 to 100 fold
- levels of intracellular sulfane sulfur in primary cortical neurons [4]: increased levels of intracellular sulfane sulfur
